Data taken from the supplement of paper PMC10307832.

Assays:
Test in all cases: relative viability (nuclei count vs DMSO), 5 days (fraction); higher = more cells survive
Wnt-C59 + Pictilisib = compound: CC1=NC=CC(=C1)C2=CC=C(C=C2)CC(=O)NC3=CC=C(C=C3)C4=CN=CC=C4 [Wnt-C59] + CS(=O)(=O)N1CCN(Cc2cc3nc(-c4cccc5[nH]ncc45)nc(N4CCOCC4)c3s2)CC1 [Pictilisib] (partner 1 µM)
Procedure, shortened: (§1)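 Dosing by pin tool came one day after lung cancer cell lines were seeded in 1536-well plates, using either one drug or a fixed anchor-drug dose plus five library-drug doses (not always all listed) in √10 steps. After 5 days, nuclei were counted on 4× images. Relative viability is treated-well nuclei count divided by vehicle-well nuclei count, and values are medians of duplicate plates.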

Wnt-C59 + Phenformin = compound: CC1=NC=CC(=C1)C2=CC=C(C=C2)CC(=O)NC3=CC=C(C=C3)C4=CN=CC=C4 [Wnt-C59] + N=C(N)NC(=N)NCCc1ccccc1 [Phenformin] (partner 250 µM)
Procedure, shortened: as §1

Lapatinib + Phenformin = compound: CS(=O)(=O)CCNCc1ccc(-c2ccc3ncnc(Nc4ccc(OCc5cccc(F)c5)c(Cl)c4)c3c2)o1 [Lapatinib] + N=C(N)NC(=N)NCCc1ccccc1 [Phenformin] (partner 250 µM)
Procedure, shortened: as §1

Lapatinib + Dasatinib = compound: CS(=O)(=O)CCNCc1ccc(-c2ccc3ncnc(Nc4ccc(OCc5cccc(F)c5)c(Cl)c4)c3c2)o1 [Lapatinib] + Cc1nc(Nc2ncc(C(=O)Nc3c(C)cccc3Cl)s2)cc(N2CCN(CCO)CC2)n1 [Dasatinib] (partner 0.075 µM)
Procedure, shortened: as §1

| Cell Line | relative viability (Wnt-C59 + Pictilisib; first compound 0.001 µM) | relative viability (Wnt-C59 + Pictilisib; first compound 0.01 µM) | relative viability (Wnt-C59 + Pictilisib; first compound 0.03162 µM) | relative viability (Wnt-C59 + Pictilisib; first compound 0.1 µM) | relative viability (Wnt-C59 + Phenformin; first compound 0.001 µM) | relative viability (Wnt-C59 + Phenformin; first compound 0.01 µM) | relative viability (Wnt-C59 + Phenformin; first compound 0.03162 µM) | relative viability (Wnt-C59 + Phenformin; first compound 0.1 µM) | relative viability (Lapatinib + Phenformin; first compound 0.02 µM) | relative viability (Lapatinib + Phenformin; first compound 0.06325 µM) | relative viability (Lapatinib + Phenformin; first compound 0.2 µM) | relative viability (Lapatinib + Phenformin; first compound 0.6325 µM) | relative viability (Lapatinib + Phenformin; first compound 2 µM) | relative viability (Lapatinib + Dasatinib; first compound 0.02 µM) | relative viability (Lapatinib + Dasatinib; first compound 0.06325 µM) | relative viability (Lapatinib + Dasatinib; first compound 0.2 µM) | relative viability (Lapatinib + Dasatinib; first compound 0.6325 µM) | relative viability (Lapatinib + Dasatinib; first compound 2 µM) |
| --- | --- | --- | --- | --- | --- | --- | --- | --- | --- | --- | --- | --- | --- | --- | --- | --- | --- | --- |
| NCI-H1437 | 0.531 | 0.617 | 0.467 | 0.479 | 0.297 | 0.296 | 0.297 | 0.26 | 0.289 | 0.278 | 0.258 | 0.303 | 0.253 | 0.28 | 0.245 | 0.382 | 0.304 | 0.345 |
| NCI-H2170 | 0.3 | 0.279 | 0.309 | 0.383 | 0.436 | 0.395 | 0.405 | 0.443 | 0.351 | 0.408 | 0.455 | 0.359 | 0.198 | 0.394 | 0.272 | 0.276 | 0.419 | 0.165 |
| NCI-H1650 | 0.549 | 0.53 | 0.645 | 0.532 | 0.449 | 0.483 | 0.454 | 0.391 | 0.442 | 0.313 | 0.461 | 0.31 | 0.307 | 0.263 | 0.253 | 0.264 | 0.38 | 0.245 |
| LCLC-97TM1 | 0.23 | 0.231 | 0.211 | 0.187 | 0.397 | 0.425 | 0.475 | 0.429 |  |  | 0.462 | 0.407 | 0.471 |  |  | 0.854 | 0.91 | 0.875 |
| RERF-LC-KJ | 0.574 | 0.543 | 0.627 | 0.54 | 0.441 | 0.478 | 0.433 | 0.419 | 0.406 | 0.39 | 0.469 | 0.35 | 0.369 | 0.812 | 0.545 | 0.732 | 0.75 | 0.36 |
| HCC-827 | 0.83 | 1.07 | 1.15 | 0.971 | 0.431 | 0.413 | 0.452 | 0.391 | 0.383 | 0.398 | 0.412 | 0.414 | 0.335 | 0.334 | 0.313 | 0.281 | 0.377 | 0.155 |
| SK-LU-1 | 0.476 | 0.558 | 0.638 | 0.559 | 0.476 | 0.49 | 0.506 | 0.503 | 0.464 | 0.484 | 0.547 | 0.674 | 0.512 | 0.162 | 0.159 | 0.179 | 0.205 | 0.182 |
| NCI-H1944 | 0.372 | 0.312 | 0.322 | 0.336 | 0.197 | 0.188 | 0.19 | 0.197 | 0.178 | 0.14 | 0.188 | 0.193 | 0.186 | 0.185 | 0.153 | 0.204 | 0.243 | 0.207 |
| COR-L 105 | 0.368 | 0.315 | 0.413 | 0.446 | 0.48 | 0.509 | 0.477 | 0.479 | 0.486 | 0.336 | 0.418 | 0.289 | 0.275 | 0.266 | 0.238 | 0.277 | 0.232 | 0.205 |
| HARA | 0.32 | 0.523 | 0.402 | 0.6 | 0.458 | 0.49 | 0.528 | 0.447 |  | 0.307 | 0.434 | 0.399 | 0.337 |  | 0.195 | 0.244 | 0.242 | 0.19 |
| NCI-H460 | 0.33 | 0.327 | 0.373 | 0.32 | 0.488 | 0.524 | 0.519 | 0.484 | 0.487 | 0.48 | 0.52 | 0.504 | 0.446 | 0.496 | 0.345 | 0.372 | 0.624 | 0.452 |
| NCI-H358 | 0.311 | 0.345 | 0.314 | 0.354 | 0.343 | 0.257 | 0.431 | 0.337 | 0.25 | 0.107 | 0.222 | 0.215 | 0.171 | 0.138 | 0.0919 | 0.127 | 0.0982 | 0.14 |
| SW 1573 | 0.452 | 0.544 | 0.563 | 0.404 | 0.343 | 0.41 | 0.431 | 0.365 | 0.398 | 0.338 | 0.346 | 0.347 | 0.354 | 0.389 | 0.381 | 0.738 | 0.434 | 0.442 |
| NCI-H2228 | 0.479 | 0.505 | 0.573 | 0.252 | 0.325 | 0.385 | 0.294 | 0.415 | 0.33 | 0.25 | 0.245 | 0.292 | 0.325 | 0.397 | 0.426 | 0.606 | 0.52 | 0.49 |
| HCC-366 | 0.113 | 0.138 | 0.149 | 0.155 | 0.614 | 0.605 | 0.668 | 0.528 |  | 0.642 | 0.633 | 0.594 | 0.559 |  | 0.493 | 0.572 | 0.722 | 0.544 |
| NCI-H520 | 0.247 | 0.293 | 0.329 | 0.291 | 0.503 | 0.59 | 0.59 | 0.55 | 0.516 | 0.596 | 0.542 | 0.653 | 0.638 | 0.235 | 0.161 | 0.265 | 0.178 | 0.187 |
| ABC-1 | 0.685 | 0.817 | 0.76 | 0.6 | 0.237 | 0.248 | 0.257 | 0.262 | 0.25 | 0.25 | 0.223 | 0.215 | 0.21 | 0.538 | 0.584 | 0.513 | 0.662 | 0.56 |
